Test results: US12686657B2, “Anti-inflammatory carboxamide derivatives” (BIOMEDCODE HELLAS SA, priority 2021, dated 2026)

Tests used:
[1] = tested on: C57BL/6J mice; assay: In vivo LPS acute systemic inflammation model, serum cytokines and chemokines (Legendplex); parameters: key to IL-1β in sera, Average / IL-17A in sera, Average / IL-27 in sera, Average / GM-CSF in sera, Average / KC in sera, Average / MCP1 in sera, Average / IP-10 in sera, Average / MIP-1A in sera, Average / MIP-1B in sera, Average / MDC in sera, Average / IL-23 in sera, Average / TNF-α in sera, Average: serum concentration in pg/ml; IL12p70 in sera, Average / IFN-γ in sera, Average: unit: pg/ml; details: 1 μg LPS i.p.
Method: In order to evaluate in vivo the anti-inflammatory effect of the test compounds a model of in vivo LPS acute systemic inflammation was used where C57BL/6J mice were challenged by administration of 1 μg LPS. Each one of the compounds 51 to 53 was administered to C57BL/6J mice per os in two doses of 50 mg. Two hours after administering the first dose, the animals received the second p.o. dose of each compound and were also challenged with 1 μg LPS intraperitoneally. Sera samples were collected 1.5 hrs post induction in order to measure the levels of 13 cytokines using the pro-inflammatory panel from Legendplex (cat no 740446) and following manufacturer's instructions. Four biological replicates were performed and the average and SEM were calculated with the obtained results.
The same protocol was followed but administering compound 53 at 100 mg/kg. In this case both the levels of the 13 cytokines but also of 13 chemokines were measured, using the pro-inflammatory panel from Legendplex (cat no 740007).
The anti-inflammatory effect of the test compounds 51, 52 and 53 was assessed in vivo in the LPS model of acute inflammation. Administration of the endotoxin Lipopolysaccharide (LPS) to mice induces acute inflammatory responses similar to the inflammatory response that occurs during the early stages of septic shock. Shortly after administration of the endotoxin, cytokines and chemokines are released. This model is fast, cost-effective and widely used for screening of anti-inflammatory properties of test items aimed for treatment of a number of inflammatory and autoimmune conditions (Seemann et al., 2017; Stortz et al., 2017).
Sera samples from the treated mice with the 50 mg/Kg doses of the test compounds 51-53 were evaluated using the mouse pro-inflammatory panel of Legendplex and the data acquired are presented as pg/ml in Table 11. Vehicle, 52 and 53 were tested in quadruplicates (vehicle_1-4), 51 in triplicate (51_1-3).
Sera samples from the treated mice with test compounds 53 with 100 mg/Kg were also evaluated using the mouse pro-inflammatory cytokine and chemokine panel of Legendplex and the effect of compound 53 at a higher dose (100 mg/kg) in inhibiting inflammatory cytokines and chemokines is presented in the Table 12 below.

[2] = tested on: hTNFtg SFs; assay: Wound healing assay on activated SFs; type: cell-based, mice; details: compound 10 μM, 24 h
Method: Activated SFs were isolated from hTNFtg mice as described above and they were seeded in 24 well plates at a concentration of 2×10^5 cells/well. The next day a straight-line wound was created on the formed cell monolayer using the tip of a 200 μl pipette. Images of the wounds were captured by microscope at a magnification of 4× at two time points. Time point 0 (i.e. the time of the creation of the wound) as well as 24 h later (t=24 h). The area of the wound was measured at each time point using the software ImageJ.
The percent closure of the wound was calculated using the following formula: [(wound area at t0−wound area at t24)/wound area at t0]*100
The assay for each compound was repeated four times.
The inventors wanted to further explore the potential of the test compounds to reduce the activated phenotype of the arthritogenic SFs and studied their effect on a wound healing assay. In this assay a wound is formed on a monolayer of SFs and the rate of closure of this wound is indicative of the proliferation and migration capacity of the SFs, i.e. the slower the closure of the wound, the less proliferative and migratory are the SFs.
The potential ability of the compounds 53, E and F to inhibit the proliferation and migration of activated SFs, was assessed at a concentration of 10 μM and the wound healing assay was performed using hTNFtg SFs, as these cells show increased proliferation and migration potential (Vasilopoulos et al., 2007). The data shown in Table 10 where the percentages of wound closure area are presented in hTNFtg untreated as well as compound treated cells.

[3] = 50 mg/Kg per os, two doses, sera 1.5 hrs post induction

SMILES	IL-1α in sera, Average [1, 3] [pg/mL]	IL-1β in sera, Average [1, 3] [pg/mL]	IL-6 in sera, Average [1, 3] [pg/mL]	IL-10 in sera, Average [1, 3] [pg/mL]	IL-17A in sera, Average [1, 3] [pg/mL]	MCP-1 in sera, Average [1, 3] [pg/mL]	% of wound closure (mean ± SD) [2] [%]	other results
COc1cc(N)c(Cl)cc1C(=O)NCC1(c2ccc(Cl)cc2)CCCCC1 [Compound 51, 4-amino-5-chloro-N-((1-(4-chlorophenyl)cyclohexyl)methyl)-2-methoxybenzamide]	27.4	87.0	4702.5	1774.5	43.8	4689.1	–	–
COc1cc(N)c(Cl)cc1C(=O)NCC1(c2ccc(Cl)cc2)CCCCCC1 [Compound 52, 4-amino-5-chloro-N-((1-(4-chlorophenyl)cycloheptyl)methyl)-2-methoxybenzamide]	43.1	118.5	3988.8	1692.2	27.7	4916.5	–	–
COc1cc(N)c(Cl)cc1C(=O)NCC1(Nc2ccc(Cl)cc2)CCCCCC1 [Compound 53, 4-amino-5-chloro-N-((1-((4-chlorophenyl)amino)cycloheptyl)methyl)-2-methoxybenzamide]	67.3	113.1	5145	2616.1	55.1	5149	67.7 ± 16.2	GM-CSF in sera, Average ([1]; 100 mg/kg p.o.): 9.8; IFN-γ in sera, Average ([1]; 100 mg/kg p.o.): 6.7; IL12p70 in sera, Average ([1]; 100 mg/kg p.o.): 5.7; IL-1β in sera, Average ([1]; 100 mg/kg p.o.): 12.4; IL-17A in sera, Average ([1]; 100 mg/kg p.o.): 3.7; IL-23 in sera, Average ([1]; 100 mg/kg p.o.): 16.6; IL-27 in sera, Average ([1]; 100 mg/kg p.o.): 16.1; IP-10 in sera, Average ([1]; 100 mg/kg p.o.): 45.2; KC in sera, Average ([1]; 100 mg/kg p.o.): 4227.5; MCP1 in sera, Average ([1]; 100 mg/kg p.o.): 1246.2; MDC in sera, Average ([1]; 100 mg/kg p.o.): 56.6; MIP-1A in sera, Average ([1]; 100 mg/kg p.o.): 244.3; MIP-1B in sera, Average ([1]; 100 mg/kg p.o.): 1301.1; TNF-α in sera, Average ([1]; 100 mg/kg p.o.): 136.8
COc1cc(N)c(Cl)cc1C(=O)NCC1(Nc2ccc(F)cc2Cl)CCCCCC1 [E, 4-amino-5-chloro-N-((1-((2-chloro-4-fluorophenyl)amino)cycloheptyl)methyl)-2-methoxybenzamide]	–	–	–	–	–	–	73 ± 31.5	–
COc1cc(N)c(Cl)cc1C(=O)NCC1(Nc2cccc(OC(F)(F)F)c2)CCCCCC1 [F, 4-amino-5-chloro-2-methoxy-N-((1-((3-(trifluoromethoxy)phenyl)amino)cycloheptyl)methyl)benzamide]	–	–	–	–	–	–	63 ± 11.8	–
